In patent US10342804B2, “Steroid compound for use in the treatment of hepatic encephalopathy” (Umecrine Cognition AB, priority 2014, dated 2019):

Tests used:
Format in all cases: in vivo, rat
[1] = Exposure in plasma and brain tissue, PCS rats (Example 13); conditions: for Total concentration in plasma: at the time for behavioral testing
Experimental: (§1) Male Wistar rats (220-240 g) were anesthetized with isoflurane, and an end-to side porta-caval anastomosis was performed as described by Lee and Fisher (Surgery, 1961, 50, 668-672).
(§2) Rats that were subjected to the porta-caval anastomosis procedure are herein referred to as “PCS rats”.
(§3) 3α-ethynyl-3β-hydroxyandrostan-17-one oxime in sesame oil was administered by subcutaneous injections in the back of the rats, once daily. Two different sets of experiments were performed in hyperammonemic rats. In the first set four groups of rats were used: 1) control rats injected with vehicle; 2) hyperammonemic rats injected with vehicle; 3) control rats injected with 20 mg/Kg of 3α-ethynyl-3β-hydroxyandrostan-17-one oxime and 4) hyperammonemic rats injected with 20 mg/Kg of 3α-ethynyl-3β-hydroxyandrostan-17-one oxime.
For the experiments using PCS rats, the following groups of rats were used: 1) Sham rats injected with vehicle; 2) PCS rats injected with vehicle; 3-4) PCS rats injected with 0.7 or 2.5 mg/Kg of 3α-ethynyl-3β-hydroxyandrostan-17-one oxime. The number of rats used in each experiment is either shown in the corresponding Figure or given in the description of the corresponding Figure.
At the end of the treatment period plasma was collected from the tail vein, and after sacrifice by decapitation brains were collected and immediately frozen on dry ice. For analysis of 3α-ethynyl-3β-hydroxyandrostan-17-one oxime exposure, brain tissue was homogenized with a 1:4 ratio of tissue: PBS (pH 7.4) and then extracted with a 2-fold volume of methanol:acetonitrile (1:1), while plasma was protein-precipitated with a 3-fold volume with acetonitrile. Analyses were performed by Waters ACQUITY UPLC+Waters XEVO-TQS triple quadrupole mass spectrometer (Admescope Oy, Oulu, Finland). For calculations of the amount of free 3α-ethynyl-3β-hydroxyandrostan-17-one oxime exposure in the brain the fraction unbound (Fb) in brain homogenates were determined by dialysis, Fub in HA=[…] and Fub in PCS=1.43% (Admescope Oy, Oulu, Finland).

hyperammonemic rats [2] = assay: Beam walking test, hyperammonemic rats (Example 8)
Experimental: (§4) Male Wistar rats (140-160 g) were made hyperammonemic by feeding them a diet containing ammonium acetate (30% by weight) (Felipo et al, European Journal of Biochemistry, 1988, 176, 567-571).
as §3, with “oxime. […]” for “oxime.”
Motor coordination was tested as described by Gonzalez-Usano et al (ACS Chemical Neuroscience, 2014, 19, 5(2), 100-105) using a wooden beam (20 mm diameter). Rats were made to traverse a one-meter-long wooden beam located approximately one meter above the ground, and the number of foot faults (slips) was recorded by two observers. The rats were trained for the test by being made to traverse the beam up to five times before measurements were recorded. […]

hyperammonemic rats [3] = assay: Morris water maze memory test, hyperammonemic rats (Example 9)
Experimental: as §4, §3
In the second set of experiments five groups of rats were used: 1) control rats injected with vehicle; 2) hyperammonemiac rats injected with vehicle and 3-5) hyperammonemic rats injected with 3, 10 or 20 mg/Kg of 3α-ethynyl-3β-hydroxyandrostan-17-one oxime. In each experiment 6-8 rats per group were used.
The test was carried out as described by Monfort et al. (European Journal of Neuroscience, 2007, 25, 2103-2111) using a circular pool (160 cm diameter, 40 cm height) arbitrarily divided into four quadrants. After pre-training, the rats were trained to learn the fixed location of the invisible platform over 3 days. Training involved placing the rat into the pool facing the wall in one of the three quadrants lacking the platform. A different starting point was randomly used on each trial. Training consisted of three swims per day. Each animal was allowed a maximum of 120 seconds to find the platform and was left for 20 seconds on the platform. […] The time needed to find the hidden platform was recorded manually and used as a measure of learning of the task.
Spatial memory was assessed 24 hours later by removing the platform and measuring the time spent by the rat in the quadrant where the platform was.

PCS rats = assay: Radial maze test, PCS rats (Example 10)
Experimental: as §1, §2, §3
For the experiments using PCS rats, the following groups of rats were used: 1) Sham rats injected with vehicle; 2) PCS rats injected with vehicle; 3-4) PCS rats injected with 0.7 or 2.5 mg/Kg of 3α-ethynyl-3β-hydroxyandrostan-17-one oxime. […]
The apparatus was composed of a central area that gave access to eight equally-sized arms. […] The number of working memory errors (visits to arms already visited in the same trial) were recorded and expressed as working errors.

blood ammonia = assay: Blood ammonia, hyperammonemic rats (Example 12); conditions: 20 mg/Kg
Experimental: as §4, §3
Blood ammonia was measured using the kit II Ammonia Arkray test (PocketChem BA, Arkray) using 20 μL of fresh blood following manufacturer's specifications.

With C#C[C@]1(O)CC[C@@]2(C)C(CC[C@@H]3[C@@H]2CC[C@]2(C)/C(=N\O)CC[C@@H]32)C1 (stereo partly drawn) [3α-ethynyl-3β-hydroxyandrostan-17-one oxime] the “Unbound concentration in the brain” value ([1]; 0.7 mg/kg/day s.c.) was 6.18 ± 0.97 nmol/kg, the “Total concentration in plasma” value ([1]; 0.7 mg/kg/day s.c.) was 0.48 ± 0.09 µM and the “Unbound concentration in the brain” value ([1]; 2.5 mg/kg/day s.c.) was 17 ± 2 nmol/kg. For the same compound, the “Total concentration in plasma” value ([1]; 2.5 mg/kg/day s.c.) was 1.64 ± 0.30 µM, the “Number of slips, beam walking test” value (hyperammonemic rats [2]; 3 mg/kg s.c. once daily) was 0.8±0.1 slips and the “Number of slips, beam walking test” value (hyperammonemic rats [2]; 20 mg/kg s.c. once daily) was 0.78±0.07 slips. The “Percentage of time spent in the correct quadrant, Morris water maze memory test” value (“Percentage of time spent” below) (hyperammonemic rats [3]; 3 mg/kg) was 41±4%, the “Percentage of time spent” value (hyperammonemic rats [3]; 10 mg/kg) was 42±5% and the “Percentage of time spent” value (hyperammonemic rats [3]; 20 mg/kg) was 38±3%. For the same compound, the “Number of working errors in days 1-2, radial maze” value (PCS rats; 0.7 mg/Kg) was 23±2 errors, the “Number of working errors in days 1-2, radial maze” value (PCS rats; 2.5 mg/Kg) was 11±1 errors and the Blood ammonia levels (blood ammonia) was 139 ± 14 µM.
